# According to patent publication US12544375B2, “Small molecule therapeutic for parkinson's disease paired with a biomarker of therapeutic activity” (The Board of Trustees of the Leland Stanford Junior …, priority 2019, dated 2026):
# How the values were obtained:
# [1] = system: healthy-1 or PD-2 fibroblasts; assay: Peroxisome movement or distribution, EGFP-peroxisome live imaging; assay type: cell-based, human; details: 10 μM for 30 hrs
# Method: (§1) FIG. 8. Related to FIG. 2-4. Miro1 Reducer in Human Cell and Fly Models. (A) Fibroblasts from Healthy-1 and PD-2 were treated, lysed, and blotted as indicated. Band intensities are normalized to those of GAPDH from the same blots and compared to “Healthy-1, no treatment”. n=4 independent experiments. (B) Fibroblasts from PD-2 were treated and immunostained as indicated. The intensity was quantified for each cell across 264-320 cells from 3 independent experiments, compared to “no treatment”. (C) Fibroblasts were treated, immunoprecipitated (IPed) with anti-Miro1, and blotted as indicated. Similar results were observed twice. (D) Similar as in (C), fibroblasts were treated as indicated, and IPed with anti-Miro1. The GTPase activity of the IPed Miro1 protein was measured as described in Method. […] The MitoSox intensity was quantified for each cell across 106-161 cells from 3 coverslips. […] The TMRM intensity was measured for each cell across 48-60 cells from 3 independent experiments, and expressed as a fraction of the mean of “Healthy-1, no treatment”. […] The movement (the intensity of non-yellow) was quantified for each cell as described in (Tsai et al., 2014) across 22-31 cells from 3 transfections. […] (1) Left: The percentage of TH-positive iPSC-derived neurons out of total cells (Dapi-positive) is calculated after immunocytochemistry under 20× as described in FIG. 3. […]
# PINK1 null flies = assay: Non-progressive phenotypes of PINK1 null flies (ATP levels, thoracic indentation, wing posture, flying ability); assay type: in vivo, fly; details: PINK1 null flies fed from adult onset with 2.5 μM
# Method: as §1
smiles,measurement,setting,value
O=C(Nc1ccc(Nc2cc(-n3ccnc3)ncn2)cc1)Nc1cccc(F)c1 [Miro1 Reducer],peroxisome movement or distribution,[1],did not affect
same,"non-progressive phenotypes (lowered ATP levels, thoracic indentation, abnormal wing posture, defective flying ability)",PINK1 null flies,did not improve
